Assay type in all cases: biochemical
One assay has as its target T1, Sirt5 (Homo sapiens, UniProt Q9NXA8).
T1 construct: Sirt5 residues 34-302; His-tag with linker comprising a TEV protease cleavage site (N); made in house
T1 sequence (Q9NXA8 34-302): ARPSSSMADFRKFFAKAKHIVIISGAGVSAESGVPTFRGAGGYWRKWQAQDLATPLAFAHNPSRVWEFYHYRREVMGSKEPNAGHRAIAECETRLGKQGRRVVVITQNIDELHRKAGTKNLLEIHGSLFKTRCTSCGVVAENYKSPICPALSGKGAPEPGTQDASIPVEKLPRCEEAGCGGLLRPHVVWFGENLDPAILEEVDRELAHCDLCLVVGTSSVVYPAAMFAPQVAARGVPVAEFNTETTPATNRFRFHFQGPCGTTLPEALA
Kind of assay: Fluor-de-Lys peptide deacetylation assay, Sirt5. The procedure: (§1) Sirt3 was expressed in E. coli and purified via Ni-NTA and size exclusion chromatography as described elsewhere, and Sirt5 according to the protocol of Schuetz et al.. […] The protein was bound to the HiTrapQ column in buffer A and eluted in a gradient to buffer A supplemented with 400 mM KCl. Fractions were analyzed by SDS-PAGE, and the Sirt1 fractions were pooled and transferred into buffer A using a NAP column (GE Healthcare).
(§2) The commercial Fluor-de-Lys (FdL) assay kits 1 and 2 (Biomol, Plymouth Meeting, USA) were used to test the deacetylase activity of the four Sirtuins. In both kits the substrate derived from p53 is composed of three amino acids, the acetyl lysine and a C-terminally attached fluorophor. For Sirt2 and 3, FdL-2 peptide (QPK(acetyl-K)) was used, and FdL-1 peptide (RHK(acetyl-K)) for Sirt5 and Sirt6. All tests were done with 0.1 mM of the respective FdL peptide and 0.5 mM NAD^+ as substrates.
(§3) NCI compound stocks were prepared by dissolving them in DMSO at a concentration of 5 mM. The initial screens with all 40 compounds contained 5 μl Sirtuin solution (Sirt2/3 0.1 mg/ml stock concentration; Sirt5/6 1 mg/ml), 1 μl of compound stock (resulting in a 100 μM end concentration), 15 μl FdL substrate, and assay buffer (supplied in the assay kit) to a total volume of 50 μl. As control reactions, peptide with either the compound (without Sirtuin) or with Sirtuin and DMSO instead of compound were measured. After starting the reactions by adding the FdL substrate, assays were incubated for 30 min at 37 °C. Subsequently, 50 μl of a 10 mg/ml trypsin stock (“Developer solution”) were added and the reactions were incubated for 45 min at room temperature. Fluorescence values were measured in a fluorometric plate reader with excitation at 360 nm and read out at 485 nm. Values were then corrected with the control reaction (same compound, but without Sirtuin).
(§4) All measurements shown are averages of duplicates (screen) or triplicates (dose-response curves), and representatives of at least two independent replications. Error bars indicate standard deviations.

Another assay has as its target T2, Sirt2 (Homo sapiens, UniProt Q8IXJ6).
T2 sequence (Q8IXJ6 34-356): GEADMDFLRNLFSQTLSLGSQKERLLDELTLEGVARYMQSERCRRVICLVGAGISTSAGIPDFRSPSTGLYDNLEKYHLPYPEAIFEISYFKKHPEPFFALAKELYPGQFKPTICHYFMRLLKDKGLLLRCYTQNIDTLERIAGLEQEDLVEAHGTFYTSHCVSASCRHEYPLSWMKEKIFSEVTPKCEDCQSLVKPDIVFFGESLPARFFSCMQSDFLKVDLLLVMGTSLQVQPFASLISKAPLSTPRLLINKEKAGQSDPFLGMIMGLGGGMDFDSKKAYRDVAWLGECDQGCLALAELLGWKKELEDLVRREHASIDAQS
Description: Fluor-de-Lys peptide deacetylation assay, Sirt2. How it is done:
The Sirt2 construct was expressed in E. coli Rosetta2 cells (Merck) in LB/Ampicillin/Chloramphenicol medium. Cells were grown at 37 °C, and expression induced at an OD600 of 0.6-0.8 for 4 h with 0.5 mM IPTG. Harvested cells were resuspended in buffer A (50 mM Tris/HCl pH 7.8, 200 mM NaCl, 2 mM DTT), disrupted with a Sonifier, and cell debris removed by 40 min centrifugation at 4 °C, 18000 rpm in a HFA22.50 rotor. The supernatant was supplemented with 10 mM imidazole and incubated with Ni-NTA resin for 1 h at 4 °C. […] The protein was concentrated in an amicon unit (Millipore, Billerica, USA) and digested over night at 4 °C with TEV-protease. The protease was removed from cleaved Sirt2 by incubation with Ni-NTA resin for 1 h at 4 °C. The protein was concentrated, 1:5 diluted with 50 mM Tris/HCl, pH 7.8, and applied to a HiTrap Q anion exchange column (GE Healthcare) equilibrated with 50 mM Tris/HCl, pH 7.8, 50 mM NaCl, 2 mM DTT and eluted with a gradient (20 column volumes) to 50 mM Tris/HCl, pH 7.8, 1 M NaCl, 2 mM DTT. Sirt2 was then applied to a Superdex200 gel filtration column (GE Healthcare) equilibrated in 20 mM Tris/HCl, pH 7.8, 150 mM NaCl, 2 mM DTT. The eluted protein was analyzed by SDS-PAGE, re-concentrated, and shock-frozen in liquid nitrogen for storage at -80 °C.
as §2, §3, §4

The target in a further assay is T3, Sirt6 (Homo sapiens, UniProt Q8N6T7).
T3 construct: Sirt6 residues 13-308; His-tag with linker comprising a TEV protease cleavage site (N, cleaved yes); made in house; host or cells: E. coli Rosetta2
T3 sequence (Q8N6T7 13-308): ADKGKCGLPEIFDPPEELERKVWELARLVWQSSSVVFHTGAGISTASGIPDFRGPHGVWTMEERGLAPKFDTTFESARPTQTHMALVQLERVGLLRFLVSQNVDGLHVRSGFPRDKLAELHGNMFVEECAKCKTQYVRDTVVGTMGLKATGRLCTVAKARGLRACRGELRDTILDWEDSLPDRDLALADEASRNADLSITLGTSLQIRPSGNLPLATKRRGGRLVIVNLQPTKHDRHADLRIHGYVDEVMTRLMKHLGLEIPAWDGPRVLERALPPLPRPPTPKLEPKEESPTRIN
Description: Fluor-de-Lys peptide deacetylation assay, Sirt6. The procedure:
as §2, §3, §4

Another assay has as its target T4, Sirt3 (Homo sapiens, UniProt Q9NTG7).
T4 construct: Sirt3 residues 114-399; His-tag with linker comprising a TEV protease cleavage site (N); made in house; host or cells: E. coli
T4 sequence (Q9NTG7 114-399): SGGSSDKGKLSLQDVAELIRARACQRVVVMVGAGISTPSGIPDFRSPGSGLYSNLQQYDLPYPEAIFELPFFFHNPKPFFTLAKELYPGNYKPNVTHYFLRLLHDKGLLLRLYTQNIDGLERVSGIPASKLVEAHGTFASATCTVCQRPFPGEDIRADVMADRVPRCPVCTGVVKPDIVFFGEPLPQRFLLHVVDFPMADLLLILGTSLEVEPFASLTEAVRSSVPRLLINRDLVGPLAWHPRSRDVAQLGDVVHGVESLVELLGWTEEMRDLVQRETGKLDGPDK
Kind of assay: Fluor-de-Lys peptide deacetylation assay, Sirt3. The procedure: as §1, §2, §3, §4

Where [1] appears, read: 100 μM compound, 0.1 mM FdL-1 peptide, 0.5 mM NAD+.
[2] abbreviates: 100 μM compound, 0.1 mM FdL-2 peptide, 0.5 mM NAD+.

This is an account of results in PMC3227451, “Structure-based development of novel sirtuin inhibitors” (Aging (Albany NY), 2011).

The structures appear in SMILES notation. Read-outs that look alike come from different tables or passages of the source.

`O=C(Nc1ccc(Nc2ccc3c(c2)C(=O)c2ccccc2C3=O)c2c1C(=O)c1ccccc1C2=O)c1ccccc1` [CSC17, N-(4-((9,10-dioxo-9,10-dihydro-2-anthracenyl)amino)-9,10-dioxo-9,10-dihydro-1-anthracenyl)benzamide, (Indanthrene Corinth RK)]: the “Effect on the activity of Sirt5” value at Sirt5 (setting [1]) is recorded as “--- (no such effect)”. Further, the “Effect on the activity of Sirt2” value at Sirt2 (setting [2]) is given as “--- (no such effect)”. The “Effect on the activity of Sirt6” value on Sirt6 (setting [1]) was “--- (no such effect)”. For the same compound, the “Effect on the activity of Sirt3” value on Sirt3 (setting [2]) is “--- (no such effect)”.

For the compound `Cc1ccc(C(=N)c2ccccc2Cc2cccc3ccccc23)c2ccccc12` [CSC24, (4-methyl-1-naphthyl)(2-(1-naphthylmethyl)phenyl)methanimine], the “Effect on the activity of Sirt5” value on Sirt5 (setting [1]) is given as “--- (no such effect)”. Moreover, at Sirt2 (setting [2]), the “Effect on the activity of Sirt2” value is given as “inhibition (significant inhibitory effects (>25% loss of activity))”. For the same compound, the “Effect on the activity of Sirt6” value at Sirt6 (setting [1]) is given as “--- (no such effect)”. On Sirt3 (setting [2]), the “Effect on the activity of Sirt3” value is “--- (no such effect)”.

For the compound `O=S1(=O)CCN(c2ccccc2CC(c2c[nH]c3ccccc23)c2c[nH]c3ccccc23)CC1` [CSC11, 3-(2-(2-(1,1-dioxido-4-thiomorpholinyl)phenyl)-1-(1H-indol-3-yl)ethyl)-1H-indole], on Sirt5 (setting [1]), the “Effect on the activity of Sirt5” value is listed as “--- (no such effect)”. Further, at Sirt2 (setting [2]), the “Effect on the activity of Sirt2” value is “--- (no such effect)”. Also, the “Effect on the activity of Sirt6” value on Sirt6 (setting [1]) was “--- (no such effect)”. In addition, on Sirt3 (setting [2]), the “Effect on the activity of Sirt3” value is listed as “--- (no such effect)”.

Turning to `Cc1ccc(C2(C)CCC(=NN=C3CCC(C)(c4ccc(C)c(C)c4)c4cc(C)c(C)cc43)c3cc(C)c(C)cc32)cc1C` (stereo not drawn) [CSC26, 4-(3,4-dimethylphenyl)-4,6,7-trimethyl-3,4-dihydro-1(2H)-naphthalenone (4-(3,4-dimethylphenyl)-4,6,7-trimethyl-3,4-dihydro-1(2H)-naphthalenylidene)hydrazone], the “Effect on the activity of Sirt5” value at Sirt5 (setting [1]) was “--- (no such effect)”. The “Effect on the activity of Sirt2” value on Sirt2 (setting [2]) is listed as “--- (no such effect)”. Further, on Sirt6 (setting [1]), the “Effect on the activity of Sirt6” value is “--- (no such effect)”. For the same compound, the “Effect on the activity of Sirt3” value on Sirt3 (setting [2]) is listed as “--- (no such effect)”.

For the compound `C[C@]12CC[C@H]3[C@@H](CCC4=CC(=O)CC[C@@H]43)[C@@H]1CCC2OC1(O)C(=O)c2ccccc2C1=O` (stereo partly drawn) [CSC16, 2-hydroxy-2-((3-oxoestr-4-en-17-yl)oxy)-1H-indene-1,3(2H)-dione], the “Effect on the activity of Sirt5” value at Sirt5 was “--- (key: inhibition: significant inhibitory effects (>25% loss of activity); ---: no such effect)”. On Sirt2, the “Effect on the activity of Sirt2” value is on record as “--- (key: inhibition: significant inhibitory effects (>25% loss of activity); ---: no such effect)”. For the same compound, the “Effect on the activity of Sirt6” value at Sirt6 is given as “--- (key: inhibition: significant inhibitory effects (>25% loss of activity); ---: no such effect)”. Besides, on Sirt3, the “Effect on the activity of Sirt3” value was “--- (key: inhibition: significant inhibitory effects (>25% loss of activity); ---: no such effect)”.

In the case of `O=S1(=O)C(c2ccccc2)C(N2CCCCC2)C1C1CC2c3ccccc3C1c1ccccc12` (stereo not drawn) [CSC33], the “Effect on the activity of Sirt5” value on Sirt5 (setting [1]) is “activation”. Moreover, on Sirt2 (setting [2]), the “Effect on the activity of Sirt2” value was “--- (no such effect)”. The “Effect on the activity of Sirt6” value at Sirt6 (setting [1]) was “activation”. In addition, on Sirt3 (setting [2]), the “Effect on the activity of Sirt3” value was “--- (no such effect)”.

As to `O=C1OC2(c3ccc(O)cc3Oc3cc(O)ccc32)c2c1c(-c1ccccc1)c(-c1ccccc1)c(-c1ccccc1)c2-c1ccccc1` [CSC28], the “Effect on the activity of Sirt5” value at Sirt5 (setting [1]) is on record as “--- (no such effect)”. Moreover, the “Effect on the activity of Sirt2” value at Sirt2 (setting [2]) is reported as “inhibition (significant inhibitory effects (>25% loss of activity))”. Further, the “Effect on the activity of Sirt6” value on Sirt6 (setting [1]) is recorded as “activation”. On Sirt3 (setting [2]), the “Effect on the activity of Sirt3” value is “--- (no such effect)”.

Take `c1ccc(CN2COc3c(ccc4c5c(ccc34)CN(Cc3ccccc3)CO5)C2)cc1` [CSC18]: on Sirt5 (setting [1]), the “Effect on the activity of Sirt5” value is listed as “--- (no such effect)”. The “Effect on the activity of Sirt2” value at Sirt2 (setting [2]) is listed as “--- (no such effect)”. Also, the “Effect on the activity of Sirt6” value at Sirt6 (setting [1]) is recorded as “--- (no such effect)”. For the same compound, the “Effect on the activity of Sirt3” value on Sirt3 (setting [2]) is listed as “--- (no such effect)”.

As to `O=C1c2cccc([N+](=O)[O-])c2C(=O)N1c1ncn[nH]1` [CSC25, 4-(hydroxy(oxido)amino)-2-(1H-1,2,4-triazol-5-yl)-1H-isoindole-1,3(2H)-dione], the “Effect on the activity of Sirt5” value on Sirt5 (setting [1]) is on record as “--- (no such effect)”. The “Effect on the activity of Sirt2” value at Sirt2 (setting [2]) is given as “--- (no such effect)”. The “Effect on the activity of Sirt6” value on Sirt6 (setting [1]) was “--- (no such effect)”. Also, at Sirt3 (setting [2]), the “Effect on the activity of Sirt3” value was “--- (no such effect)”.

With `O=C1c2ccccc2-c2ccc(/N=[N+](\[O-])c3ccc4c(c3)C(=O)c3ccccc3-4)cc21` [CSC3], the “Effect on the activity of Sirt5” value at Sirt5 (setting [1]) is “--- (no such effect)”. Also, the “Effect on the activity of Sirt2” value at Sirt2 (setting [2]) is given as “--- (no such effect)”. The “Effect on the activity of Sirt6” value on Sirt6 (setting [1]) is given as “--- (no such effect)”. Moreover, the “Effect on the activity of Sirt3” value on Sirt3 (setting [2]) is “--- (no such effect)”.

Take `O=C1c2ccccc2C(C2c3ccccc3C(=O)c3cc(Br)ccc32)c2ccc(Br)cc21` (stereo not drawn) [CSC19]: the “Effect on the activity of Sirt5” value on Sirt5 (setting [1]) is listed as “--- (no such effect)”. Moreover, the “Effect on the activity of Sirt2” value at Sirt2 (setting [2]) is recorded as “--- (no such effect)”. Further, at Sirt6 (setting [1]), the “Effect on the activity of Sirt6” value is reported as “--- (no such effect)”. The “Effect on the activity of Sirt3” value at Sirt3 (setting [2]) is “--- (no such effect)”.

`S=C(Nc1ccc2c(c1)Cc1ccccc1-2)Nc1ccc2c(c1)Cc1ccccc1-2` [CSC7, N,N'-di(9H-fluoren-2-yl)thiourea]: the “Effect on the activity of Sirt5” value on Sirt5 (setting [1]) was “--- (no such effect)”. Moreover, the “Effect on the activity of Sirt2” value on Sirt2 (setting [2]) is on record as “inhibition (significant inhibitory effects (>25% loss of activity))”. Further, on Sirt6 (setting [1]), the “Effect on the activity of Sirt6” value is “--- (no such effect)”. The “Effect on the activity of Sirt3” value at Sirt3 (setting [2]) is recorded as “--- (no such effect)”.
